PMC4664558 (Clinical Pharmacology and Therapeutics, 2015)
“And” between values parts separate entries of the source, which are not always exact repeats. Identical values can stand only once. Like-named read-outs stand apart in the source and are kept apart here.

Legend:
rat L6 myotubes = experiment: Myotoxicity in rat L6 myotubes; type: cell-based; conditions: 10 μM for 5 days, compared to DMSO control
[1] = Peak plasma / gut / hepatic inlet concentration at the highest clinical dose; type: in vivo, human; conditions: for Maximal hepatic inlet concentration ([I]inlet,max): Cmax + (ka x Dose x FaFg/Qh); for Inhibitor concentration ([I]): [I] equal to Cmax
[2] = peak total plasma concentration at the highest clinical dose; cited from earlier work
CYP2D6 [3] = target: T1, CYP2D6 (Homo sapiens, UniProt P10635); experiment: biochemical
T1 sequence (P10635 whole entry): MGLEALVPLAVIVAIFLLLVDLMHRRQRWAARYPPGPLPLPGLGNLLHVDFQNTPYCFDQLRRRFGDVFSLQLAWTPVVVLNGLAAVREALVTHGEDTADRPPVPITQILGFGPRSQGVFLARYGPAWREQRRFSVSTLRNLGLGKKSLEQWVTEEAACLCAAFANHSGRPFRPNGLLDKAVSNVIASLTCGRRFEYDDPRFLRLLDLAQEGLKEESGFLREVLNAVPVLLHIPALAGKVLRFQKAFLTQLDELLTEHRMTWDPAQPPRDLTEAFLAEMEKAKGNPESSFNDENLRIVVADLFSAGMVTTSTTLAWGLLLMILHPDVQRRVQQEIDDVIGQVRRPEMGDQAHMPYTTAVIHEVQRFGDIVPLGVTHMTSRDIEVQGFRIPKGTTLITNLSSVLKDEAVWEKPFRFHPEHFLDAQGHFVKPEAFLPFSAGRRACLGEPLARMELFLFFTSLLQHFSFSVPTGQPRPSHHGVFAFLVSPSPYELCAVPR

OATP1B2 = target: T2, OATP1B2 (Rattus norvegicus, UniProt Q9QZX8); experiment: Inhibition of E217βDG active uptake in cryopreserved rat hepatocytes; conditions: for inhibition at 3 min, 100 μM: rat, cryopreserved rat hepatocytes, probe [3H] β-estradiol 17-β-D-glucuronide (E217βDG), 1 μM, 0.1 μCi; for Predicted R value: OATP1B1/1B3-based DDI, 1 + [I]inlet,max/Ki, Ki approximated by IC50
T2 sequence (Q9QZX8 1-687): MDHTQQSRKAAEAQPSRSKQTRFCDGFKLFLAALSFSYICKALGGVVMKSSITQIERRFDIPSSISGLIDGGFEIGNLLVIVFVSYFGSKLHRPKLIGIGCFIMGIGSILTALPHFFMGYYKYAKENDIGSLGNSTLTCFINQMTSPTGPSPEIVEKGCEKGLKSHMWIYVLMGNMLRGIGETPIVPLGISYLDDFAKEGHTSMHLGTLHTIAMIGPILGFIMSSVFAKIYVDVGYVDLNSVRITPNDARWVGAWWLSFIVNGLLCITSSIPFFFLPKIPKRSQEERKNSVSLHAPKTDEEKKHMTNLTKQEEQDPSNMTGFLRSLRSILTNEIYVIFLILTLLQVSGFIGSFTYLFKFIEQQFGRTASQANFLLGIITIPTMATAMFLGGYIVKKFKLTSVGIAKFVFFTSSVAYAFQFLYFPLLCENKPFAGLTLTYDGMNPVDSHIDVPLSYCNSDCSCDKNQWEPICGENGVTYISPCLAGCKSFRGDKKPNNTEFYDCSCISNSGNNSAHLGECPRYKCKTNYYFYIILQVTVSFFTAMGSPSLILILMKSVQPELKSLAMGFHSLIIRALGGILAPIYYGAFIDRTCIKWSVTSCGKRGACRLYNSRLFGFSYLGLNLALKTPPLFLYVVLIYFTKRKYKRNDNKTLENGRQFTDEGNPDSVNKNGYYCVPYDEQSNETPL

CYP2C19 = CYP2C19 (Homo sapiens, UniProt P33261); experiment: Fluorometric CYP inhibition assay; type: biochemical; conditions: for Ki: pathway CYP2C19
Sequence of CYP2C19 (P33261 whole entry): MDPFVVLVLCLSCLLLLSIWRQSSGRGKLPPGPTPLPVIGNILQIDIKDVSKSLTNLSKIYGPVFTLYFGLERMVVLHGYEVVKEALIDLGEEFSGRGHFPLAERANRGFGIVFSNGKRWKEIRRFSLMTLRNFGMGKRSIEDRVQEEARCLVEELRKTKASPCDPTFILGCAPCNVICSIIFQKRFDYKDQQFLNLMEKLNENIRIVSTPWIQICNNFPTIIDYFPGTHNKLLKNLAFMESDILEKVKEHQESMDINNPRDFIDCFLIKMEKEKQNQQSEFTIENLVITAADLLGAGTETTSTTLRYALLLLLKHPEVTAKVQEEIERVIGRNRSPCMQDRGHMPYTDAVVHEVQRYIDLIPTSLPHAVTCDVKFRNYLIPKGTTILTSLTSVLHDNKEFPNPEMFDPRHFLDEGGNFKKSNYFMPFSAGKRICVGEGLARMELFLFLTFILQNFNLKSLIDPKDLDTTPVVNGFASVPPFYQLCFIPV

CYP2C9 [4] = target: T3, CYP2C9 (Homo sapiens, UniProt P11712)
T3 sequence (P11712 whole entry): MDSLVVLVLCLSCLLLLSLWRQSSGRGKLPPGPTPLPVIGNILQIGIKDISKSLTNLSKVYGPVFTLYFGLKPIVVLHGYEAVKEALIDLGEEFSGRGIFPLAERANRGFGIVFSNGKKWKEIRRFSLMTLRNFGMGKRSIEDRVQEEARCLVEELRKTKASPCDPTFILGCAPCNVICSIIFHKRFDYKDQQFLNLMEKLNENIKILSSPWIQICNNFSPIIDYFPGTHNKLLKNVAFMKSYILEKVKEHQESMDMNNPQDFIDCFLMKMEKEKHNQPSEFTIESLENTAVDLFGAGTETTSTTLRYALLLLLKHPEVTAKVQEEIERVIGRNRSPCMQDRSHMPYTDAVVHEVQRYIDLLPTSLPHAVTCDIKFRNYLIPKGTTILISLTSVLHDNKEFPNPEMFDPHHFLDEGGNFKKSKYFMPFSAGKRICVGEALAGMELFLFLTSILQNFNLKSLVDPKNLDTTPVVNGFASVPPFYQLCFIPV

CYP2D6 [5] = target: T1, CYP2D6
CYP3A4 = CYP3A4 (Homo sapiens, UniProt P08684)
Sequence of CYP3A4 (P08684 whole entry): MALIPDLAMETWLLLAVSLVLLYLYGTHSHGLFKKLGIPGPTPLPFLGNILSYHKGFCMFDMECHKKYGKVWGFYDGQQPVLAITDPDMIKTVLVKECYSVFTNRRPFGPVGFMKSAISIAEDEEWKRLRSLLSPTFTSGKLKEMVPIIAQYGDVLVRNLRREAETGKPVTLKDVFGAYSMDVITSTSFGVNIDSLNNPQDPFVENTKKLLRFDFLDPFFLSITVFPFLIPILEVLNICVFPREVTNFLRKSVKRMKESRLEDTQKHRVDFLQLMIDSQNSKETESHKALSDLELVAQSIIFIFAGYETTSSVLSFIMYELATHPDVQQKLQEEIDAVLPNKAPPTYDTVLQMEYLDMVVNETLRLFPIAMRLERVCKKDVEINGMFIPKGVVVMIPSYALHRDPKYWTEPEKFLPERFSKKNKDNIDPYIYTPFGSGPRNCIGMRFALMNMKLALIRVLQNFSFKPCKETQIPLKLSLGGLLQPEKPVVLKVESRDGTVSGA

CYP2C9 [6] = target: T3, CYP2C9; experiment: biochemical; conditions: pathway CYP2C9
[7] = INPC cohort study: risk of myopathy after prescription of drug pairs; conditions: adjusted for age and sex; for Risk2 (myopathy risk for drug 2): drug 2 only
[8] = cited from earlier work
[9] = Unbound dissociation constant (Ki,u), Ki * fu,inc
[10] = Dissociation constant (Ki), pathway CYP2D6
[11] = Unbound dissociation constant (Ki,u), pathway CYP2D6, Ki * fu,inc

SMILES	myotube death (rat L6 myotubes) [%]	Maximal hepatic inlet concentration ([I]inlet,max) [1] [µM]	Inhibitor concentration ([I]) [1] [µM]	Peak plasma concentration (Cmax) [2]	inhibition at 3 min, 100 μM (OATP1B2) [%]	Risk2 (myopathy risk for drug 2) [7]	other results
Clc1ccc2c(c1)CCc1cccnc1C2=C1CCNCC1 [Desloratadine]	73.3 ± 1.1	–	–	–	–	–	–
CCC(C)(C)C(=O)O[C@H]1C[C@@H](C)C=C2C=C[C@H](C)[C@H](CC[C@@H](O)C[C@@H](O)CC(=O)O)[C@H]21 [Simvastatin acid]	33.0 ± 2.1	12.274	–	–	–	–	–
CC(CN1c2ccccc2Sc2ccccc21)N(C)C (stereo not drawn) [Promethazine]	–	–	0.068	19.3 (36) ng/ml	17.7 ± 7.7	–	Ki (CYP2D6 [3]; Dissociation constant (Ki)): 0.25 µM; Ki (CYP2D6 [3]; Unbound dissociation constant (Ki,u)): 0.22 µM
[H]/N=C(/NCCCCC)N/N=C/c1c[nH]c2ccc(OC)cc12 [Tegaserod]	97.9 ± 0.4	–	0.009	2.7 (39) ng/ml	24.6 ± 15.3	0.020	Predicted R-values (CYP2C19): 1.00; Ki (CYP2C19; Dissociation constant (Ki)): 9.2 µM; Ki (CYP2C19; [9]): 8.48 µM; Predicted R-values (CYP2C9 [4]): 1.00; Predicted R-values (CYP2D6 [5]): 1.02; Predicted R-values (CYP3A4): 1.17; Ki (CYP2C9 [6]; Dissociation constant (Ki)): 11.4 µM; Ki (CYP2C9 [6]; [9]): 10.5 µM; Ki (CYP2D6 [3]; [10]): 0.51 µM; Ki (CYP2D6 [3]; [11]): 0.47 µM
CCOC(=O)N1CCC(=C2c3ccc(Cl)cc3CCc3cccnc32)CC1 [Loratadine]	–	–	0.011	–	–	–	Risk1 (myopathy risk for drug 1) ([7]; drug 1 only): 0.022 and 0.020
Cc1nnc2n1-c1ccc(Cl)cc1C(c1ccccc1)=NC2 [Alprazolam]	–	0.981	–	–	54.5 ± 0.3	0.029	IC50 (OATP1B2): 99.5 µM; Predicted R value (OATP1B2): 1.01
COc1ccc2[nH]c([S+]([O-])Cc3ncc(C)c(OC)c3C)nc2c1 (stereo not drawn) [Omeprazole]	–	19.586	–	–	60.1 ± 4.8	0.059	IC50 (OATP1B2): 84.3 µM; Predicted R value (OATP1B2): 1.23
CCCN(CCC)CCc1cccc2c1CC(=O)N2 [Ropinirole]	–	–	0.103	26.9 (37) ng/ml	23.7 ± 2.7	0.018	Ki (CYP2D6 [3]; [10]): 0.85 µM; Ki (CYP2D6 [3]; [11]): 0.71 µM
COCc1c(C(C)C)nc(C(C)C)c(/C=C/[C@@H](O)C[C@@H](O)CC(=O)O)c1-c1ccc(F)cc1 [cerivastatin]	–	–	–	–	–	–	risk of rhabdomyolysis relative to other statins [8]: 10 fold; risk of rhabdomyolysis relative to other statins ([8]; with concurrent use of gemfibrozil): 50 fold
CCC(C)(C)C(=O)O[C@H]1C[C@@H](C)C=C2C=C[C@H](C)[C@H](CC[C@@H]3C[C@@H](O)CC(=O)O3)[C@H]21 [Simvastatin]	73.7 ± 2.6	–	–	–	–	0.033	–
